The source of these data is publication PMC5608804, “Stepwise Evolution Improves Identification of Diverse Peptides Binding to a Protein Target” (Scientific Reports, 2017).

Assay [1] deals with T1, streptavidin (Streptomyces avidinii, UniProt P22629).
T1 construct: purchased GE Healthcare (Little Chalfont, UK)
Nature of the assay: SPR analysis of peptide binding to immobilized streptavidin (Biacore X100). The conditions noted are these: for type of SPR binding kinetics: SPR sensorgrams, immobilized streptavidin. On the procedure: SPR analysis of peptide binding to streptavidin was performed with streptavidin immobilized on a chip and peptides in solution (see Materials and Methods).
Surface Plasmon Resonance (SPR) experiments were performed using a Biacore X100 instrument (GE Healthcare). 60 µl of 100 µg/ml streptavidin in 10 mM Na-acetate (pH 5.0) was immobilized to flow cell 2 (Fc2) of a sensor chip CM5 (GE Healthcare) using the Amine Coupling Kit (GE Healthcare) at 20 °C for 6 min. Peptide stock solutions were prepared at 5 or 10 mM in H2O and diluted in HBS-EP+ (GE Healthcare) buffer. Peptide binding was performed in a multiple kinetics mode using HBS-EP+ as a running buffer and 0.2 M NaCl, 10 mM NaOH, or 10 mM HCl-glycine (pH 1.7) as the regeneration buffer. Binding kinetics parameters were calculated using Biacore X100 software.
In general terms: SPR reads the build-up and loss of mass on a sensor chip optically.

Assay [2] has as its target T1, streptavidin. Nature of the assay: Cy5-streptavidin binding on cyclic discovery array, paired cyclic/linear 5-mer L/D-peptides. The conditions noted are these: Cy5-SA, three independent replicates on the same array, cyclic vs linear features. The text has this:
To identify cyclic peptide binders to streptavidin, Cy5-SA was bound to an array library of 388,962 5-mer L/D-peptides. The pentameric peptides were composed of a 4-mer peptide synthesized with a combination of uncharged L- and D-amino acids and a γ-Glu: this residue enabled synthesis of both head-to-tail cyclic and linear peptides, respectively, for each peptide through either allyl ester or t-butyl ester C-terminal protection (see Materials and Methods for amino acid composition and cyclization protocol). The paired cyclic and linear array features were spatially positioned side-by-side to control for potential variations in cyclization yield for each peptide. The fluorescence signal intensities across three independent replicates on the same array were compared and the ratio cyclic to linear peptide of signal intensities was compared.
The combined cyclic and linear peptide libraries were synthesized starting with either the allyl ester (OAll) or t-butyl ester, respectively, of N-(2-nitrophenyl)propoxycarbonyl (NPPOC)-protected glutamate (γ-Glu) linked to the array surface through the carboxylic acid side chain. […]
Cy5 fluorescence intensity of the arrays was measured with an MS200 scanner (Roche NimbleGen, Madison, WI) at resolution 2 µm, wavelength 635 nm, gain 25%, and laser intensity 100%. […]

For assay [3], the target named is T1, streptavidin. Nature of the assay: Cy5-streptavidin binding on HotSpot discovery array, 5-mer L-peptide library. The conditions noted are these: 5-mer L-peptide library array, Cy5-streptavidin; from the average of three arrays. The gist of the method: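 Array of 2,476,099 5-mer peptides (19 amino acids, no cysteine) with Gly-Ser linkers, probed overnight at 4 °C with 0.5 µg/ml Cy5-streptavidin in Tris pH 7.4 buffer containing casein or BSA plus Tween-20. Cy5 fluorescence read at 635 nm; peptides selected by signal-to-background >4 across three arrays.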

Square brackets hold non-standard residues; d marks the D form. Ends that are not written are not given here. Peptide text beside a SMILES is read from it.

T1 sequence (P22629 25-183): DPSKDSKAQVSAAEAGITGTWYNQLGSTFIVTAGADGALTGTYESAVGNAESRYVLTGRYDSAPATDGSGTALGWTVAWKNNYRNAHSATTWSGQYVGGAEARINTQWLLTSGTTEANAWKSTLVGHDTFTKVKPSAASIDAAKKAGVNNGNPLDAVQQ

Regarding `NC(=O)CC[C@@H]1NC(=O)[C@H](Cc2c[nH]c3ccccc23)NC(=O)[C@H]2CCCN2C(=O)[C@H](CCC(N)=O)NC(=O)[C@H](CC(N)=O)NC1=O` [NQpWQ (head-to-tail cyclic)] (cyclo(NQ[dP]WQ)), the “type of SPR binding kinetics” value in assay [1] is listed as “fast on/fast off”. Moreover, the “fluorescence signal intensity on cyclic discovery array” value in assay [2] is listed as “highest fluorescence signal intensity”.

Turning to “AFPDYLAEYHGG-NH2 [NH2-AFPDYLAEYHGG-amide]”, the “fold improvement of Kd over the HPQ peptide also developed in this study” value in assay [1] (SPR Kd versus EWVHPQFEQKAK) was found to be 100 fold. In addition, the “fold improvement of Kd over Strep-tag II HPQ” value in assay [1] (SPR Kd versus Strep-tag II HPQ) was 1,000 fold.

As for `NC(=O)CC[C@H](NC(=O)[C@H](Cc1c[nH]c2ccccc12)NC(=O)[C@H]1CCCN1C(=O)[C@H](CCC(N)=O)NC(=O)[C@@H](N)CC(N)=O)C(=O)O` [NH2-NQpWQ-COOH] (H-NQ[dP]WQ-OH), the “binding in SPR” value in assay [1] (peptide concentrations of ≤2 mM) was “no measurable binding”.

For the compound H-GNSFDDWLASKG-NH2, the “type of SPR binding kinetics” value in assay [1] is “irreversible binding kinetics”. The “equilibrium dissociation constant (Kd)” value in assay [1] (SPR, streptavidin amine-coupled to CM5 chip, peptides in HBS-EP+, steady-state affinity for fast on/fast off peptides, otherwise 1:1 binding model) is recorded as “irreversible binding”.

With “EWVHPQFEQKAK-NH2 [NH2-EWVHPQFEQKAK-amide]”, the “type of SPR binding kinetics” value in assay [1] is given as “fast on/fast off”.

“SAWSHPQFEK [NH2-SAWSHPQFEK-COOH, reference compound]”: in assay [1], the “type of SPR binding kinetics” value is “fast on/fast off”.

For HPQMG, in assay [3], the “S/B (signal to background ratio)” value was determined as 59.2.

Turning to MKHPQ, the “S/B (signal to background ratio)” value in assay [3] came out at 84.7.
